Results from PubChem BioAssay AID1259407 (Chemical Carcinogenesis Research Information System (CCRIS), 2018).
Activity calls are given as the source filed them. How the calls were made is not given here.

Tested on: CCRIS mutagenicity, Ames/micronucleus/aberration tests
Assay: CCRIS mutagenicity studies
[1] = Test System: AMES SALMONELLA TYPHIMURIUM, Strain/Indicator: TA97, Metabolic Activation: NONE, Method: PREINCUBATION
[2] = Test System: AMES SALMONELLA TYPHIMURIUM, Strain/Indicator: TA98, Metabolic Activation: NONE, Method: PREINCUBATION
[3] = Test System: AMES SALMONELLA TYPHIMURIUM, Strain/Indicator: TA100, Metabolic Activation: NONE, Method: PREINCUBATION
[4] = Test System: AMES SALMONELLA TYPHIMURIUM, Strain/Indicator: TA1535, Metabolic Activation: NONE, Method: PREINCUBATION

Structure (SMILES): OCC(O)CO
- mutagenic call (End Point: IN VITRO CHROMOSOMAL ABERRATIONS, Test System: CHO-WBL CELLS, Metabolic Activation: NONE): inactive; negative
- mutagenic call [1]: inactive; negative
- mutagenic call (Test System: AMES SALMONELLA TYPHIMURIUM, Strain/Indicator: TA97, Metabolic Activation: RAT, LIVER, S-9, AROCLOR 1254, Method: PREINCUBATION): inactive; negative
- mutagenic call [2]: inactive; negative
- mutagenic call (Test System: AMES SALMONELLA TYPHIMURIUM, Strain/Indicator: TA98, Metabolic Activation: RAT, LIVER, S-9, KC 500, Method: PREINCUBATION): inactive; negative
- mutagenic call [3]: inactive; negative
- mutagenic call (Test System: AMES SALMONELLA TYPHIMURIUM, Strain/Indicator: TA100, Metabolic Activation: RAT, LIVER, S-9, KC 500, Method: PREINCUBATION): inactive; negative
- mutagenic call (Test System: AMES SALMONELLA TYPHIMURIUM, Strain/Indicator: TA102, Metabolic Activation: NONE, Method: PREINCUBATION): inactive; negative
- mutagenic call (Test System: AMES SALMONELLA TYPHIMURIUM, Strain/Indicator: TA102, Metabolic Activation: RAT, LIVER, S-9, AROCLOR 1254, Method: PREINCUBATION): inactive; negative
- mutagenic call [4]: inactive; negative
- mutagenic call (Test System: AMES SALMONELLA TYPHIMURIUM, Strain/Indicator: TA1535, Metabolic Activation: RAT, LIVER, S-9, KC 500, Method: PREINCUBATION): inactive; negative
- mutagenic call (Test System: AMES SALMONELLA TYPHIMURIUM, Strain/Indicator: TA1537, Metabolic Activation: NONE, Method: PREINCUBATION): inactive; negative
- mutagenic call (Test System: AMES SALMONELLA TYPHIMURIUM, Strain/Indicator: TA1537, Metabolic Activation: RAT, LIVER, S-9, KC 500, Method: PREINCUBATION): inactive; negative
- mutagenic call (Test System: AMES SALMONELLA TYPHIMURIUM, Strain/Indicator: TA1538, Metabolic Activation: NONE, Method: PREINCUBATION): inactive; negative
- mutagenic call (Test System: AMES SALMONELLA TYPHIMURIUM, Strain/Indicator: TA1538, Metabolic Activation: RAT, LIVER, S-9, KC 500, Method: PREINCUBATION): inactive; negative
- mutagenic call (Test System: E. COLI, Strain/Indicator: WP2 UVRA, Metabolic Activation: NONE, Method: PREINCUBATION): inactive; negative
- mutagenic call (Test System: E. COLI, Strain/Indicator: WP2 UVRA, Metabolic Activation: RAT, LIVER, S-9, KC 500, Method: PREINCUBATION): inactive; negative

Structure (SMILES): COc1nncc2cnccc12
- mutagenic call [2]: inactive; negative
- mutagenic call (Test System: AMES SALMONELLA TYPHIMURIUM, Strain/Indicator: TA98, Metabolic Activation: RAT, LIVER, S-9, PCB, Method: PREINCUBATION): inactive; negative
- mutagenic call [3]: inactive; negative
- mutagenic call (Test System: AMES SALMONELLA TYPHIMURIUM, Strain/Indicator: TA100, Metabolic Activation: RAT, LIVER, S-9, PCB, Method: PREINCUBATION): inactive; negative

Structure (SMILES): O[C@H]1C=Cc2c(ccc3cccnc23)[C@@H]1O
- mutagenic call (Test System: AMES SALMONELLA TYPHIMURIUM, Strain/Indicator: TA100, Metabolic Activation: RAT, LIVER, S-9, AROCLOR 1254, Method: STANDARD PLATE): active; positive

Structure (SMILES): c1ccc(-c2nc3ccccc3o2)cc1
- mutagenic call (Test System: AMES SALMONELLA TYPHIMURIUM, Strain/Indicator: TA98, Metabolic Activation: NONE, Method: STANDARD PLATE): inactive; negative
- mutagenic call (Test System: AMES SALMONELLA TYPHIMURIUM, Strain/Indicator: TA98, Metabolic Activation: S-9, Method: STANDARD PLATE): inactive; negative

Structure (SMILES): Fc1cccc2ncccc12
- mutagenic call (End Point: In vitro chromosomal aberrations, Test System: Chinese hamster lung fibroblast cells (CHL/IU), Metabolic Activation: Rat, liver, S-9): active; positive, described as marginally clastogenic at non toxic doses. (information d
- mutagenic call (End Point: In vitro micronucleus, Test System: Chinese hamster lung fibroblast cells (CHL/IU), Metabolic Activation: Rat, liver, S-9): active; positive (information derived from a figure)
- mutagenic call (Test System: AMES SALMONELLA TYPHIMURIUM, Strain/Indicator: TA100, Metabolic Activation: RAT LIVER S-9, PHENOBARBITAL AND 5,6-BENZOFLAVONE, Method: PREINCUBATION): active; positive
- mutagenic call (Test System: AMES SALMONELLA TYPHIMURIUM, Strain/Indicator: TA100, Metabolic Activation: RAT, LIVER, S-9, AROCLOR 1254, Method: PREINCUBATION): active; positive
- mutagenic call (Test System: AMES SALMONELLA TYPHIMURIUM, Strain/Indicator: TA100, Metabolic Activation: RAT, LIVER, S-9, PHENOBARBITAL AND 5,6-BENZOFLAVONE, Method: PREINCUBATION): active; positive
- mutagenic call (Test System: AMES SALMONELLA TYPHIMURIUM, Strain/Indicator: TA100, Metabolic Activation: RAT, LIVER, S-9, PHENOBARBITAL AND 5,6-NAPHTHOFLAVONE, Method: PREINCUBATION): active; positive
- mutagenic call (Test System: UDS RODENT HEPATOCYTES, Strain/Indicator: THY INCORP (NON-S-PHASE), Metabolic Activation: NONE, Method: AUTORADIOGRAPHY): active; positive

Structure (SMILES): c1ccc2c(c1)Oc1ccccc1O2
- mutagenic call (Test System: AMES SALMONELLA TYPHIMURIUM, Strain/Indicator: TA98(1,8-DNP6), Metabolic Activation: RAT, LIVER, S-9, PCB, Method: SUSPENSION): inactive; negative
- mutagenic call (Test System: AMES SALMONELLA TYPHIMURIUM, Strain/Indicator: TA98(NR), Metabolic Activation: RAT, LIVER, S-9, PCB, Method: SUSPENSION): inactive; negative
- mutagenic call (Test System: AMES SALMONELLA TYPHIMURIUM, Strain/Indicator: TA98, Metabolic Activation: NONE, Method: SUSPENSION): inactive; negative
- mutagenic call (Test System: AMES SALMONELLA TYPHIMURIUM, Strain/Indicator: TA98, Metabolic Activation: RAT, LIVER, S-9, PCB, Method: SUSPENSION): inactive; negative
- mutagenic call (Test System: AMES SALMONELLA TYPHIMURIUM, Strain/Indicator: TA100, Metabolic Activation: NONE, Method: SUSPENSION): inactive; negative
- mutagenic call (Test System: AMES SALMONELLA TYPHIMURIUM, Strain/Indicator: TA100, Metabolic Activation: RAT, LIVER, S-9, PCB, Method: SUSPENSION): inactive; negative

Structure (SMILES): OCCCCO
- mutagenic call (Test System: AMES SALMONELLA TYPHIMURIUM, Strain/Indicator: TA97, Metabolic Activation: HAMSTER, LIVER, S-9, AROCLOR 1254 (10 OR 30%), Method: PREINCUBATION): inactive; negative
- mutagenic call [1]: inactive; negative
- mutagenic call (Test System: AMES SALMONELLA TYPHIMURIUM, Strain/Indicator: TA97, Metabolic Activation: RAT, LIVER, S-9, AROCLOR 1254 (10 OR 30%), Method: PREINCUBATION): inactive; negative
- mutagenic call (Test System: AMES SALMONELLA TYPHIMURIUM, Strain/Indicator: TA98, Metabolic Activation: HAMSTER, LIVER, S-9, AROCLOR 1254 (10 OR 30%), Method: PREINCUBATION): inactive; negative
- mutagenic call [2]: inactive; negative
- mutagenic call (Test System: AMES SALMONELLA TYPHIMURIUM, Strain/Indicator: TA98, Metabolic Activation: RAT, LIVER, S-9, AROCLOR 1254 (10 OR 30%), Method: PREINCUBATION): inactive; negative
- mutagenic call (Test System: AMES SALMONELLA TYPHIMURIUM, Strain/Indicator: TA100, Metabolic Activation: HAMSTER, LIVER, S-9, AROCLOR 1254 (10%), Method: PREINCUBATION): inactive; negative
- mutagenic call (Test System: AMES SALMONELLA TYPHIMURIUM, Strain/Indicator: TA100, Metabolic Activation: HAMSTER, LIVER, S-9, AROCLOR 1254 (30%), Method: PREINCUBATION): inactive; negative
- mutagenic call [3]: inactive; negative
- mutagenic call (Test System: AMES SALMONELLA TYPHIMURIUM, Strain/Indicator: TA100, Metabolic Activation: RAT, LIVER, S-9, AROCLOR 1254 (10 OR 30%), Method: PREINCUBATION): inactive; negative
- mutagenic call (Test System: AMES SALMONELLA TYPHIMURIUM, Strain/Indicator: TA1535, Metabolic Activation: HAMSTER, LIVER, S-9, AROCLOR 1254 (10 OR 30%), Method: PREINCUBATION): inactive; negative
- mutagenic call [4]: inactive; negative
- mutagenic call (Test System: AMES SALMONELLA TYPHIMURIUM, Strain/Indicator: TA1535, Metabolic Activation: RAT, LIVER, S-9, AROCLOR 1254 (10 OR 30%), Method: PREINCUBATION): inactive; negative

Structure (SMILES): C=CC(O)CO (centres undefined)
- mutagenic call (Test System: Mouse splenic T lymphocytes in vivo, Strain/Indicator: B6C3F1 females (HPRT)/6-Thioguanine, Metabolic Activation: None, Method: Inhalation at 0, 6, 18, 36 ppm 6 hr/day for 4 wks (sacrifice 2-8 wks post exposure)): active; positive (especially at 5.5-6 wk after last exposure)
- mutagenic call (Test System: Mouse splenic T lymphocytes in vivo, Strain/Indicator: B6C3F1 males (HPRT)/6-Thioguanine, Metabolic Activation: None, Method: Inhalation at 0, 6, 18, 36 ppm 6 hr/day for 4 wks (sacrifice 2-8 wks post exposure)): active; positive (especially at 5.5-6 wk after last exposure)
- mutagenic call (Test System: Rat splenic T lymphocytes in vivo, Strain/Indicator: F344 females (HPRT)/6-Thioguanine, Metabolic Activation: None, Method: Inhalation at 0, 36 ppm 6 hr/day for 4 wks (sacrifice 2-8 wks post exposure)): active; positive (at 5-6 wks)

Structure (SMILES): CC(=O)N=c1sn(C(C)=O)c2ccc([N+](=O)[O-])cc12
- mutagenic call (Test System: AMES SALMONELLA TYPHIMURIUM, Strain/Indicator: TA100, Metabolic Activation: S-9, Method: STANDARD PLATE): active; positive
